Reference: patent US7910622B2, “Modulation of bacterial quorum sensing with synthetic ligands” (Wisconsin Alumni Research Foundation, priority 2007, dated 2011)
“And” between values parts separate entries of the source, which are not always exact repeats. Identical values can stand only once. Like-named read-outs stand apart in the source and are kept apart here. Marks after values point to notes of the source that are not given here.

Tests used:
Assay in all cases: cell-based
LuxR [1] = target: T1, LuxR (Aliivibrio fischeri, UniProt P35327); type: cell-based, Vibrio fischeri; settings: for V. fischeri-LuxR Inhibition [%]: 5 μM synthetic ligand against 5 μM OHHL
T1 construct: a Δ-luxI derivative of V. fischeri ES114, in which the native lux operon behaves as the bioluminescent reporter; endogenous in cells; host or cells: V. fischeri ES114 (Δ-luxI)
Experimental: (§1) Luminescence assays. For agonism assays, an appropriate amount of AHL stock solution was added into a 96-well plate. An overnight culture of E. coli or V. fischeri was diluted 1:10 with appropriate media (LB plus 10 μg/mL tetracycline for E. coli; LBS for V. fischeri). A 200-μL portion of the diluted culture was added to each well of the plate. Plates were grown for 4-8 h with shaking (200 rpm; 30° C. for E. coli and RT for V. fischeri). Luminescence was measured using a multilabel plate reader and normalized to cell density. […] All assays were performed in triplicate. Graphpad Prism software was used to calculate IC50 and EC50 values.
(§2) Vibrio fischeri assay procedures. […] An overnight culture of V. fischeri ES114 (WT, Δ-luxI or Δ-luxR) was diluted 1:10 with LBS medium. A-200 μL portion of the diluted culture was added to each well of the plate. Plates were grown at RT with shaking (200 rpm) until the OD600=0.35-0.4 (4-6 h). Luminescence then was measured and normalized to cell density per well. […] All assays were performed in triplicate. IC50 and EC50 values were calculated using GraphPad Prism software using a sigmoidal curve fit.
(§3) V. fischeri reporter gene assay protocols. […] An overnight culture of V. fischeri ES114 (D-luxI) was diluted 1:10 with LBS medium. A 200-μL portion of the diluted culture was added to each well of the multititer plate. Plates were grown at RT with shaking (200 rpm) until the OD600=0.35-0.4 (4-6 h). Luminescence then was measured and normalized to cell density per well.
(§4) Dose response reporter gene assays. […] IC50 and EC50 values were calculated using GraphPad Prism software (v. 4.0) using a sigmoidal curve fit.
(§5) V. fischeri reporter gene assay protocols. […] An overnight culture of V. fischeri ES114 (Δ-luxI) was diluted 1:10 with LBS medium. A200 μL portion of the diluted culture was added to each well of the multititer plate. Plates were incubated at RT until the OD600=0.35-0.4 (4-6 h). Luminescence then was measured and normalized to cell density per well.
as §4

LasR [2] = target: T2, LasR (Pseudomonas aeruginosa, UniProt P25084); type: cell-based; settings: for E. coli-LasR Inhibition [%]: 5 μM synthetic ligand against 7.5 nM OdDHL
T2 construct: expressed in transfected cells; host or cells: E. coli DH5α (pJN105L pSC11), arabinose-induced
Experimental: (§6) E. coli LasR reporter gene assay protocols. […] An overnight culture of E. coli DH5a (pJN105L pSC11) grown at 37° C. was subculture by diluting 1/10 in fresh LB medium containing 100 μg/mL ampicillin and 15 μg/mL gentamicin and shaking at 37° C. until OD600=0.3. Arabinose (4 mg/mL) was then added to induce the LasR promoter and a 200 μL-portion of this culture was added to each well of the multititer plate containing AHLs. Plates were grown at 37° C. for 2 hours in a rotary shaking incubator (200 rpm; OD600=0.45). The cultures were then assayed for activity following the identical β-galactosidase assay protocols used in the A. tumefaciens reporter gene assays.
as §4
(§7) E. coli LasR reporter gene assay protocols. […] An overnight culture of E. coli DH5α (pJN105L pSC11) was diluted 1:10 with fresh LB medium containing 100 μg/mL ampicillin and 15 μg/mL gentamicin. This sub-culture was incubated at 37° C. until OD600=0.3 (4-6 h). Arabinose (4 mg/mL) was then added to induce the LasR promoter, and a 200 μL portion of this culture was added to each well of the multititer plate containing AHLs. Plates were incubated at 37° C. until OD600=0.45 (4-6 h). The cultures were then assayed for LasR activity following the identical β-galactosidase assay protocols used in the A. tumefaciens reporter gene assays (see above).
as §4

LasR [3] = target: T2, LasR; settings: for E. coli-LasR Activation [%]: 5 μM ligand
Experimental: as §6, §4, §7, §4

LuxR [4] = target: T1, LuxR; set-up: species or system Vibrio fischeri; settings: for V. fischeri-LuxR Activation [%]: 200 μM ligand
Experimental: as §1, §2, §3, §4, §5, §4

TraR = target: T3, TraR (Agrobacterium tumefaciens, UniProt P33905); settings: for A. tumefaciens-TraR Activation [%]: 10 μM ligand; for A. tumefaciens-TraR Inhibition [%]: 10 μM synthetic ligand against 100 nM OOHL
T3 construct: These strains lack their AHL synthase (I) genes, but retain their native R genes; endogenous in cells; host or cells: A. tumefaciens WCF47 (Δ-traI) with PtraI-lacZ plasmid pCF372
Experimental: A. tumefaciens reporter gene assay protocols. […] An overnight culture of A. tumefaciens WCF47 (pCF372) was diluted to an OD600 of 0.1 in fresh AB minimal medium containing 400 μg/mL octopine and 50 μg/mL streptomycin. A 200 μL-portion of the diluted culture was added to each well of the multititer plate containing AHLs. Plates were grown at 28° C. for 18-20 h in a rotary shaking incubator (200 rpm). The cultures were then assayed for β-galactosidase activity following the Miller assay method. Briefly, 200 μL aliquots of bacteria from each of the wells were added to wells of a polystyrene 96-well plate and the OD600 of each well was recorded. Next, 50 μL aliquots from each well were transferred to a solvent resistant 96-well plate containing 200 μL Z buffer, 8 μL CHCl3 and 4 μL 0.1% aq. sodium dodecylsulfate (SDS). This suspension was mixed via repetitive pipetting, after which the CHCl3 was allowed to settle. A 100-μL aliquot from each well was transferred to a fresh polystyrene 96-well plate, and 20 μL of substrate, o-nitrophenyl-β-D-galactopyranoside (ONPG, 4 μg/mL in phosphate buffer), was added at time zero. After the development of appropriate yellow color (ca. 15-35 min), the reaction was terminated by the addition of 50 μL of 1 M Na2CO3. Absorbance at 420 nm and 550 nm was measured for each well using a plate reader, and Miller units were calculated according to standard methods.
as §4
A. tumefaciens reporter gene assay protocols. […] An overnight culture of A. tumefaciens WCF47 (pCF372) was diluted 1:10 with fresh AB minimal medium containing 400 μg/mL octopine and 50 μg/mL streptomycin. A 200 μL portion of the diluted culture was added to each well of the multititer plate containing AHLs. Plates were incubated at 28° C. for 18-24 h. The cultures were then assayed for β-galactosidase activity following the Miller assay method. Briefly, 200 μL aliquots of bacteria from each of the wells were added to wells of a 96-well multititer plate, and the OD600 of each well was recorded. Next, 50 μL aliquots from each well were transferred to a solvent resistant 96-well multititer plate containing 200 μL Z buffer, 8 μL CHCl3 and 4 μL 0.1% aq. SDS. This suspension was mixed via repetitive pipetting, after which the CHCl3 was allowed to settle. A 100 μL aliquot from each well was transferred to a fresh 96-well multititer plate, and 20 μL of substrate, o-nitrophenyl-β-D-galactopyranoside (ONPG, 4 μg/mL in phosphate buffer), was added at time zero. After the development of appropriate yellow color (ca. 20-30 min), the reaction was terminated by the addition of 50 μL of 1 M Na2CO3. Absorbances at 420 nm and 550 nm were measured for each well using a plate reader, and Miller units were calculated according to standard methods.
as §4

[5] = V. fischeri ES114 (Δ-luxI), normalized to OHHL
[6] = E. coli DH5α (pJN105L pSC11), normalized to OdDHL
[7] = A. tumefaciens WCF47 (pCF372), normalized to OOHL

T2 sequence (P25084 whole entry): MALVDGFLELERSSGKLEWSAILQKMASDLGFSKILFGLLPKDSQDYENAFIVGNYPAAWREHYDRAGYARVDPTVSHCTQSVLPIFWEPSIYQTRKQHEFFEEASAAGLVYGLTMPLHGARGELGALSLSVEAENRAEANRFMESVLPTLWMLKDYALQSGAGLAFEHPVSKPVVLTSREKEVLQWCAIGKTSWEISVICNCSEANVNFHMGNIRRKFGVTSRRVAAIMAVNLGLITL
T1 sequence (P35327 whole entry): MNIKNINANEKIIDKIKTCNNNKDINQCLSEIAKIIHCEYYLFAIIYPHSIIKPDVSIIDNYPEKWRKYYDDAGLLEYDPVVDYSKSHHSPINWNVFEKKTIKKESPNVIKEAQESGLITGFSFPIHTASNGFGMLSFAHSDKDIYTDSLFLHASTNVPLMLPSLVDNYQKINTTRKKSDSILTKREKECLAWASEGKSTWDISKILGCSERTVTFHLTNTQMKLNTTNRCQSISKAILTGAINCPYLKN
T3 sequence (P33905 whole entry): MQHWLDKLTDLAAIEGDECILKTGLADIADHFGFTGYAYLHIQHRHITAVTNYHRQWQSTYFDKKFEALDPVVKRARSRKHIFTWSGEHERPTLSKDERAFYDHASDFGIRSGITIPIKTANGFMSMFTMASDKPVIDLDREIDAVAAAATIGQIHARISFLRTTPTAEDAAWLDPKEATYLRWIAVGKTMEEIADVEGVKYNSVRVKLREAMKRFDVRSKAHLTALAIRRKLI

SMILES	V. fischeri-LuxR Inhibition [%] (LuxR [1]; [5])	E. coli-LasR Inhibition [%] (LasR [2]; [6])	E. coli-LasR Activation [%] (LasR [3]; [6])	V. fischeri-LuxR Activation [%] (LuxR [4]; [5])	A. tumefaciens-TraR Activation [%] (TraR; [7])	A. tumefaciens-TraR Inhibition [%] (TraR; [7])	other results
CCOc1ccc(CC(=O)N[C@H]2CCOC2=O)cc1 [B29]	55	15	0	2	0	35	–
CCCCCCCCCC(=O)NC1CCOC1=O (stereo not drawn) [A4, C10 AHL]	–	–	–	–	–	–	IC50 (LuxR [1]; LuxR IC50, determined against 5 μM OHHL): 900 nM and 400 nM; inhibition at 5 µM (LuxR [1]; read-out: V. fischeri-LuxR Inhibition [%], 5 μM synthetic ligand against 5 μM OHHL, V. fischeri ES114 (Δ-luxI), normalized to OHHL): 96%; IC50 (LasR [2]): 250 nM; LasR: concentration at which the compound elicits its maximal inhibition (value in parentheses) (LasR [2]; against 7.5 nM OdDHL, dose response curve did not reach 100% inhibition): (2.0)^f μM; inhibition at 5 µM (LasR [2]; read-out: E. coli-LasR Inhibition [%], 5 μM synthetic ligand against 7.5 nM OdDHL, E. coli DH5α (pJN105L pSC11), normalized to OdDHL): 34%; EC50 (LasR [3]): > 200000 nM; activation at 5 µM (LasR [3]; read-out: E. coli-LasR Activation [%], 5 μM ligand, E. coli DH5α (pJN105L pSC11), normalized to OdDHL): ≤ 44%; activation at 200 µM (LuxR [4]; read-out: V. fischeri-LuxR Activation [%], 200 μM ligand, V. fischeri ES114 (Δ-luxI), normalized to OHHL): 1%; IC50 (TraR): 1050 nM; activation at 10 µM (TraR; read-out: A. tumefaciens-TraR Activation [%]): 2%; inhibition at 10 µM (TraR; read-out: A. tumefaciens-TraR Inhibition [%], 10 μM synthetic ligand against 100 nM OOHL, A. tumefaciens WCF47 (pCF372), normalized to OOHL): 92%
COc1cc(C(C)=O)ccc1OCC(=O)N[C@H]1CCOC1=O [D16]	40	18	0	1	0	11	–
O=C(CC1CCCC1)N[C@H]1CCOC1=O [B12]	57	19	0	3	0	11	–
O=C(CCC(=O)OC(C(=O)c1ccccc1)c1ccccc1)N[C@H]1CCOC1=O (stereo partly drawn) [D19]	30	17	7	1	0	11	–
O=C(Cc1ccccc1[N+](=O)[O-])N[C@H]1CCOC1=O [B18]	23	17	0	4	0	1	–
O=C(Cc1ccc(C(F)(F)F)cc1)N[C@H]1CCOC1=O [C20, 4-trifluoromethyl PHL]	–	–	–	–	–	–	Inhibition (%) (LuxR [1]; V. fischeri-LuxR, Library C primary antagonism screen): 78%; Inhibition (%) (LasR [2]; E. coli-LasR, Library C primary antagonism screen): 26%; Activation (%) (LasR [3]; E. coli-LasR, Library C primary agonism screen): 0%; Activation (%) (LuxR [4]; V. fischeri-LuxR, Library C primary agonism screen): 3%; Activation (%) (TraR; A. tumefaciens-TraR, Library C primary agonism screen): 2%; Inhibition (%) (TraR; A. tumefaciens-TraR, Library C primary antagonism screen): 92%; IC50 (TraR; determined against 100 nM OOHL, read-out: TraR IC50): 810 nM
CC(C)(C)OC(=O)NCCCCC(=O)N[C@H]1CCOC1=O [A22]	47	15	3	2	0	10	–
C=CCCC(=O)N[C@H]1CCOC1=O [A23]	18	12	0	2	0	5	–
CCOC(=O)/C=C/C(=O)N[C@H]1CCOC1=O [A20]	37	13	0	1	0	3	–
